Patent US9675592B2, “Methods and compositions for bacteria infections” (priority 2013, dated 2017)
Like-named read-outs stand apart in the source and are kept apart here.

Tests used:
[1] = test system: test strain (923 pPvra-lux); test: Growth inhibition by compound alone (maximum non-growth-inhibitory concentration); format: cell-based, Staphylococcus aureus; conditions: for maximum non-GI conc: compound alone, maximum concentration where it did NOT inhibit growth
[2] = test system: test strain 923 pPvra-lux; test: Secondary screen / synergy confirmation of Top 40, relative growth with oxacillin; format: cell-based, Staphylococcus aureus; conditions: Top 40 library, compound at maximum non-GI conc
Experimental: In the secondary screen each microtiter plate contained either cells in TSB alone (16 replicates), cells with oxacillin (2 μg/mL, 31 replicates), or cells with test compound and oxacillin (2 μg/mL, 49 wells). Each compound was assayed in four separate biological replicates.
Synergy Confirmation of “Top 40”. […]

[3] = test system: test strain 923 pPvra-lux (USA300 MRSA); test: Primary screen, relative growth in presence of oxacillin; conditions: compound 10 μM with oxacillin 2 μg/mL, absorbance 24 h, <0.50 = dead cells = hit
[4] = test system: vraSR promoter (Pvra-lux reporter in strain 923); format: cell-based, Staphylococcus aureus; conditions: for RL Ox avg: Top 40 library, with oxacillin, compound at maximum non-GI conc; for vraSR repressing synergist: overall class from syn and rep
Experimental: In the secondary screen each microtiter plate contained either cells in TSB alone (16 replicates), cells with oxacillin (2 μg/mL, 31 replicates), or cells with test compound and oxacillin (2 μg/mL, 49 wells). Each compound was assayed in four separate biological replicates. […]

[5] = test system: vraSR promoter (Pvra-lux reporter in strain 923); test: Primary screen, relative luminescence (vraSR expression)
[6] = primary screen, compound 10 μM with oxacillin 2 μg/mL, <0.50 = vraSR repressed = hit

SMILES	maximum non-GI conc [1] [µg/mL]	RG Ox avg [2]	RG avg (relative growth) [3]	RL Ox avg [4]	vraSR repressing synergist [4]	RL avg (relative luminescence) [5, 6]	concentration ([1]; compound tested alone, concentration where it did NOT inhibit growth (subinhibitory), Top 40 leads after secondary screen) [µg/mL]	RL avg (relative luminescence) [5]
O=C(Nc1ccc2c(c1)OCO2)Nc1nc(-c2ccccn2)cs1 [F5772-8284]	400	0.37	0.37	0.52	2. possible	−0.01	–	–
Fc1ccc(-c2csc3ncnc(Sc4nnnn4-c4ccccc4)c23)cc1 [F1142-4245]	400	0.25	0.03	0.04	1. confirmed	0.36	–	–
O=C(Nc1nnc(C2=COCCO2)o1)c1cccc(Br)c1 [F0608-0146]	40	0.96	−0.05	1.11	3. no effect	−0.12	–	–
Clc1ccc(-c2csc3ncnc(Sc4nnnn4-c4ccccc4)c23)cc1 [F1142-4597]	40	0.08	0.03	−0.01	1. confirmed	0.37	–	–
Cc1cc(SCC(=O)Nc2cccc(C(F)(F)F)c2)n2ncc(-c3ccccc3)c2n1 [F3305-0354]	40	1.01	0.00	0.61	3. no effect	0.03	–	–
O=C(Nc1ccc(Cl)c(C(F)(F)F)c1)N1CCN(c2cc(-n3cccn3)ncn2)CC1 [F5562-0130]	40	1.03	0.02	0.57	3. no effect	−0.08	–	–
COc1ccc(Cl)c2sc(NC(=O)c3ccccc3NS(=O)(=O)c3ccc(F)cc3)nc12 [F2708-0138]	40	1.04	0.02	0.69	3. no effect	−0.07	4	–
CC1CC1c1ccc(CCC(=O)Nc2ccc(Cl)c(Cl)c2)o1 (centres unmarked) [F1118-0378]	40	1.00	0.01	0.65	3. no effect	0.42	–	–
Cc1nnsc1C(=O)Nc1nc(-c2cc3ccccc3o2)cs1 [F2962-0176]	400	0.04	0.06	0.01	1. confirmed	−0.08	–	–
O=C(Nc1nc(-c2ccccn2)cs1)c1ccc(Br)s1 [F0447-0273]	40	0.39	−0.08	0.08	1. confirmed	−0.09	–	–
O=S(=O)(Nc1cccc(-c2nc3ccccc3s2)c1)c1ccc(Cl)s1 [F2399-0063]	400	−0.01	0.28	0.04	1. confirmed	0.12	–	–
CC(=O)Nc1ccc(Nc2cc(C(C)(C)C)nc3c(-c4ccccc4)c(C)nn23)cc1 [F3348-0030]	400	0.01	0.05	0.05	1. confirmed	0.12	–	–
CSc1cccc2sc(NC(=O)c3ccccc3NS(=O)(=O)c3ccc(C)cc3)nc12 [F2730-0247]	400	0.23	0.31	0.15	1. confirmed	0.16	–	–
O=C(Nc1cccc(C(F)(F)F)c1)N1CCN(c2ccc(Nc3cccnc3)nn2)CC1 [F5237-0056]	40	1.10	0.02	0.72	3. no effect	−0.05	–	–
O=C(CCCSc1ccc(Cl)cc1)Nc1nc(-c2ccccn2)cs1 [F2813-0883]	40	1.03	−0.03	1.28	3. no effect	−0.01	–	–
OC(c1ccccc1)c1nc2ccccc2n1Cc1ccc(Cl)c(Cl)c1 (centres unmarked) [F3068-0037]	400	−0.01	−0.02	0.11	1. confirmed	0.05	–	–
Cc1ccc(S(=O)(=O)Nc2ccccc2C(=O)Nc2nc3c(C)ccc(Cl)c3s2)cc1 [F1813-0711]	400	0.85	−0.02	0.43	2. possible	–	–	−0.02
O=C(Nc1ccc(Cl)c(Cl)c1)N(Cc1ccsc1)Cc1ccco1 [F5854-2599]	40	1.01	0.01	0.54	3. no effect	−0.06	–	–
O=C(Nc1ccc(OC(F)(F)F)cc1)N1CCN(c2cc(N3CCCC3)ncn2)CC1 [F5669-0378]	40	1.00	−0.02	0.71	3. no effect	−0.06	–	–
O=S(=O)(Nc1cccc(-c2nc3ccccc3s2)c1)c1ccc(F)c(Cl)c1 [F3394-0078]	40	1.24	0.26	0.41	3. no effect	0.26	–	–
O=C(Nc1nnc(-c2ccccc2Cl)o1)c1ccc2ccccc2c1 [F1374-0082]	40	0.67	0.08	0.08	2. possible	0.35	–	–
Cn1cccc1C(CNC(=O)Nc1ccc(Cl)c(Cl)c1)N1CCOCC1 (centres unmarked) [F5833-1551]	40	0.99	0.01	0.56	3. no effect	−0.03	–	–
O=C(Nc1ccccc1-c1nc2ccccc2[nH]1)c1ccccc1Br [F0015-0758]	400	0.92	−0.06	0.25	3. no effect	0.33	–	–
Cc1ccc(S(=O)(=O)Nc2ccccc2C(=O)Nc2nc3c(Cl)ccc(Cl)c3s2)cc1 [F1813-0710]	400	0.69	−0.03	0.20	2. possible	0.01	–	–
CN(C)CCCNc1cc(C(C)(C)C)nc2c(-c3ccc(Cl)cc3)cnn12 [F3348-0373]	40	0.99	0.05	0.80	3. no effect	0.41	–	–
Cc1ccc(Nc2nc(N3CCN(Cc4ccccc4)CC3)nc3nccnc23)cc1C [F2359-0308]	400	0.01	0.22	0.01	1. confirmed	0.07	–	–
Cc1ccc(-c2nnc(NC(=O)c3ccc(S(=O)(=O)N4CCc5ccccc5C4)cc3)o2)c(C)c1 [F2518-0213]	4	1.14	0.01	0.33	3. no effect	−0.01	–	–
O=C(Nc1cccc(C(F)(F)F)c1)N1CCN(c2ccc3nncn3n2)CC1 [F5123-0084]	40	1.08	0.02	0.67	3. no effect	−0.08	–	–
O=C(Nc1nnc(-c2ccc3c(c2)CCCC3)o1)c1nc2ccccc2s1 [F0608-570]	–	–	−0.05	–	–	−0.07	–	–
O=C(Nc1nnc(-c2cccs2)o1)c1sc2ccccc2c1Cl [F1374-988]	–	–	0.03	–	–	0.37	–	–
